Several values for one entry are separate records, joined by “and”; a condition that tells them apart may be missing. Equal entries are not always repeated. Records with an inconclusive call do not appear.
Tested on: nude mice, LX-1 lung xenograft intrarenal, tumor weight T/C
Experiment: NCI In Vivo Anticancer Drug Screen. Data for tumor model Human Lung LX-1 Xenograft (intrarenal inoculation) in NU/NU Swiss (nude) mice
Conditions: endpoint: mean tumor weight change, higher = larger tumour
Summary of the method: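 Compound-treated mice carrying transplanted tumors were compared with vehicle-treated controls. Tumor size was the measured end point, and the value is the treated-group measurement divided by the control-group measurement (T/C).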

[1] = dose: 300.0 mg/kg/injection, schedule: Q04DX003 (sc), vehicle: suspension in saline
[2] = dose: 600.0 mg/kg/injection, schedule: Q04DX003 (sc), vehicle: suspension in saline
[3] = dose: 300.0 mg/kg/injection, schedule: Q04DX003 (sc), vehicle: Klucel (hydroxypropylcellulose) (HPC)
[4] = dose: 600.0 mg/kg/injection, schedule: Q04DX003 (sc), vehicle: Klucel (hydroxypropylcellulose) (HPC)
[5] = dose: 1200.0 mg/kg/injection, schedule: Q04DX003 (sc), vehicle: Klucel (hydroxypropylcellulose) (HPC)
[6] = dose: 2400.0 mg/kg/injection, schedule: Q04DX003 (sc), vehicle: Klucel (hydroxypropylcellulose) (HPC)
[7] = dose: 75.0 mg/kg/injection, schedule: Q04DX003 (sc), vehicle: Klucel (hydroxypropylcellulose) (HPC)
[8] = dose: 150.0 mg/kg/injection, schedule: Q04DX003 (sc), vehicle: Klucel (hydroxypropylcellulose) (HPC)
[9] = dose: 50.0 mg/kg/injection, schedule: Q01DX010 (sc), vehicle: saline
[10] = dose: 200.0 mg/kg/injection, schedule: Q01DX010 (sc), vehicle: saline
[11] = dose: 400.0 mg/kg/injection, schedule: Q01DX010 (sc), vehicle: saline
[12] = dose: 100.0 mg/kg/injection, schedule: Q01DX010 (sc), vehicle: saline
[13] = dose: 300.0 mg/kg/injection, schedule: Q04DX003 (sc), vehicle: saline with Tween-80
[14] = dose: 1200.0 mg/kg/injection, schedule: Q04DX003 (sc), vehicle: saline with Tween-80

Compound: c1cc[c]([Sn]([NH]c2ncnc3[nH]cnc23)([NH]c2ncnc3[nH]cnc23)[c]2ccccc2)cc1
- T/C [1]: 85 % of control
- T/C [2]: 84 % of control
- T/C (dose: 1200.0 mg/kg/injection, schedule: Q04DX003 (sc), vehicle: suspension in saline): 82 % of control
- T/C (dose: 2400.0 mg/kg/injection, schedule: Q04DX003 (sc), vehicle: suspension in saline): 64 % of control

Compound: Clc1ccc(C(c2ccccc2Cl)C(Cl)Cl)cc1 (stereo not drawn)
- T/C (dose: 400.0 mg/kg/injection, schedule: Q01DX010 (sc), vehicle: saline with Tween-80): 80 % of control
- T/C (dose: 800.0 mg/kg/injection, schedule: Q01DX010 (sc), vehicle: saline with Tween-80): 40 % of control
- T/C (dose: 800.0 mg/kg/injection, schedule: Q01DX010 (sc), vehicle: saline): 69 % of control
- T/C (dose: 1600.0 mg/kg/injection, schedule: Q01DX010 (sc), vehicle: saline with Tween-80): 56 % of control
- T/C (dose: 1600.0 mg/kg/injection, schedule: Q01DX010 (sc), vehicle: saline): 55 % of control
- T/C (dose: 3200.0 mg/kg/injection, schedule: Q01DX010 (sc), vehicle: saline with Tween-80): 24 % of control
- T/C (dose: 3200.0 mg/kg/injection, schedule: Q01DX010 (sc), vehicle: saline): 80 % of control
- T/C (dose: 6400.0 mg/kg/injection, schedule: Q01DX010 (sc), vehicle: saline): 73 % of control

Compound: C1CNCOC1
- T/C (dose: 300.0 mg/kg/injection, schedule: Q04DX003 (sc), vehicle: saline): 90 % of control

Compound: CCCCOCN(COCCCC)C(C)Cc1ccccc1 (stereo not drawn)
- T/C (dose: 100.0 mg/kg/injection, schedule: Q04DX003 (sc), vehicle: saline with Tween-80): 71 % of control
- T/C (dose: 200.0 mg/kg/injection, schedule: Q04DX003 (sc), vehicle: saline with Tween-80): 85 % of control
- T/C (dose: 800.0 mg/kg/injection, schedule: Q04DX003 (sc), vehicle: saline with Tween-80): 121 % of control

Compound: CNNCc1ccc(C(=O)NC(C)C)cc1
- T/C (dose: 166.66 mg/kg/injection, schedule: Q04DX003 (ip), vehicle: saline): -73 % of control
- T/C (dose: 333.33 mg/kg/injection, schedule: Q04DX003 (ip), vehicle: saline): -64 % of control
- T/C (dose: 666.65 mg/kg/injection, schedule: Q04DX003 (ip), vehicle: saline): -73 % of control

Compound: Cc1ccc(C(=O)[O][Hg][CH2]C2COC([CH2][Hg][O]C(=O)c3ccc(C)cc3)CO2)cc1 (stereo not drawn)
- T/C (dose: 25.0 mg/kg/injection, schedule: Q01DX010 (sc), vehicle: Klucel (hydroxypropylcellulose) (HPC)): 89 % of control
- T/C (dose: 50.0 mg/kg/injection, schedule: Q01DX010 (sc), vehicle: Klucel (hydroxypropylcellulose) (HPC)): 58 % of control
- T/C (dose: 100.0 mg/kg/injection, schedule: Q01DX010 (sc), vehicle: Klucel (hydroxypropylcellulose) (HPC)): 112 % of control
- T/C (dose: 200.0 mg/kg/injection, schedule: Q01DX010 (sc), vehicle: Klucel (hydroxypropylcellulose) (HPC)): 63 % of control

Compound: C[C@]12CC[C@@H]3c4ccc(O)cc4CC[C@H]3[C@@H]1CC[C@@H]2O
- T/C [3]: 120 % of control
- T/C [4]: 101 % of control
- T/C [5]: 103 % of control
- T/C [6]: 53 % of control

Compound: C=Cc1cnc([N+](=O)[O-])n1C
- T/C [7]: 106 % of control
- T/C [8]: 96 % of control
- T/C [3]: 98 % of control
- T/C [4]: 92 % of control

Compound: O=C(O)CC(NC(=O)CP(=O)(O)O)C(=O)O.[NH-]C1CCCCC1[NH-].[Pt+2] (stereo not drawn)
- T/C (dose: 6.25 mg/kg/injection, schedule: Q04DX003 (sc), vehicle: dextrose): 86 % of control
- T/C (dose: 12.5 mg/kg/injection, schedule: Q04DX003 (sc), vehicle: dextrose): 72 % of control
- T/C (dose: 25.0 mg/kg/injection, schedule: Q04DX003 (sc), vehicle: dextrose): 54 % of control

Compound: C[Si](C)(C)O/C=C1/CCOC1=O
- T/C (dose: 50.0 mg/kg/injection, schedule: Q04DX003 (sc), vehicle: suspension in saline): 115 % of control
- T/C (dose: 100.0 mg/kg/injection, schedule: Q04DX003 (sc), vehicle: suspension in saline): 122 % of control
- T/C (dose: 200.0 mg/kg/injection, schedule: Q04DX003 (sc), vehicle: suspension in saline): 107 % of control
- T/C (dose: 400.0 mg/kg/injection, schedule: Q04DX003 (sc), vehicle: suspension in saline): 106 % of control

Compound: COc1cc(Cc2nccc3cc(OC)c(OC)cc23)c(C(C)=O)c(OC)c1
- T/C (dose: 40.0 mg/kg/injection, schedule: Q01DX010 (sc), vehicle: saline): 78 % of control
- T/C (dose: 80.0 mg/kg/injection, schedule: Q01DX010 (sc), vehicle: saline): 57 % of control
- T/C (dose: 160.0 mg/kg/injection, schedule: Q01DX010 (sc), vehicle: saline): 67 % of control

Compound: O=C(O)CC(NC(=O)CP(=O)(O)O)C(=O)O (stereo not drawn)
- T/C (dose: 25.0 mg/kg/injection, schedule: Q01DX010 (sc), vehicle: saline): 51 % of control
- T/C [9]: 90 % of control
- T/C [10]: 57 % of control
- T/C [11]: 174 % of control

Compound: CC[C@](C)(O)C(=O)O[C@H]1C(=O)O[C@@H]2C[C@H]3C(C)=CC(=O)[C@@H](O)[C@]3(C)[C@H]3[C@@]4(O)OC[C@]32[C@@H]1[C@@H](C)[C@H]4O
- T/C (dose: 0.25 mg/kg/injection, schedule: Q01DX010 (sc), vehicle: Klucel (hydroxypropylcellulose) (HPC)): 48 % of control
- T/C (dose: 0.5 mg/kg/injection, schedule: Q01DX010 (sc), vehicle: Klucel (hydroxypropylcellulose) (HPC)): 71 % of control and 92 % of control
- T/C (dose: 1.0 mg/kg/injection, schedule: Q01DX010 (sc), vehicle: Klucel (hydroxypropylcellulose) (HPC)): 70 % of control and 75 % of control
- T/C (dose: 2.0 mg/kg/injection, schedule: Q01DX010 (sc), vehicle: Klucel (hydroxypropylcellulose) (HPC)): 43 % of control and 45 % of control

Compound: O=C(NP(=O)(N1CC1)N1CC1)c1cc(I)ccc1I
- T/C [9]: 73 % of control
- T/C [12]: 54 % of control

Compound: C(COCCOCC1CO1)OCCOCC1CO1 (stereo not drawn)
- T/C [12]: 108 % of control
- T/C [10]: 93 % of control
- T/C [11]: 46 % of control

Compound: CCc1ccccc1N1CCN(C(=O)c2cc(OC)c(OC)c(OC)c2)CC1
- T/C [3]: 62 % of control
- T/C [4]: 34 % of control
- T/C [5]: 33 % of control
- T/C [6]: 30 % of control

Compound: O=c1[nH]cnc2[nH]ncc12
- T/C (dose: 150.0 mg/kg/injection, schedule: Q04DX003 (sc), vehicle: suspension in saline): 88 % of control
- T/C [1]: 100 % of control
- T/C [2]: 61 % of control

Compound: CC(=O)OCC1OC(OC(C)=O)C(NC(=O)N(CCCl)N=O)C(OC(C)=O)C1OC(C)=O (stereo not drawn)
- T/C (dose: 12.0 mg/kg/injection, schedule: Q04DX003 (sc), vehicle: Klucel (hydroxypropylcellulose) (HPC)): 36 % of control
- T/C (dose: 24.0 mg/kg/injection, schedule: Q04DX003 (sc), vehicle: Klucel (hydroxypropylcellulose) (HPC)): 25 % of control

Compound: C=C(C)[C@H]1CN[C@H](C(=O)O)[C@H]1CC(=O)O
- T/C (dose: 10.0 mg/kg/injection, schedule: Q04DX003 (sc), vehicle: saline): 164 % of control
- T/C (dose: 20.0 mg/kg/injection, schedule: Q04DX003 (sc), vehicle: saline): 97 % of control

Compound: O=c1s[se]c2ccccc12
- T/C [7]: 66 % of control
- T/C [8]: 59 % of control

Compound: CC1=C(/C=C/C(C)=C/C=C/C(C)=C/C=O)C(C)(C)CCC1
- T/C (dose: 75.0 mg/kg/injection, schedule: Q04DX003 (sc), vehicle: saline with Tween-80): 94 % of control
- T/C (dose: 150.0 mg/kg/injection, schedule: Q04DX003 (sc), vehicle: saline with Tween-80): 68 % of control
- T/C [13]: 56 % of control and 74 % of control
- T/C [14]: 57 % of control

Compound: OCC1OC(n2cnc3cc(Cl)c(Cl)cc32)C(O)C1O (stereo not drawn)
- T/C [13]: 112 % of control
- T/C (dose: 600.0 mg/kg/injection, schedule: Q04DX003 (sc), vehicle: saline with Tween-80): 86 % of control
- T/C [14]: 94 % of control
- T/C (dose: 2400.0 mg/kg/injection, schedule: Q04DX003 (sc), vehicle: saline with Tween-80): 72 % of control

Compound: OCC1OC(n2cnc3c2NC=NC[C@H]3O)CC1O (stereo partly drawn)
- T/C (dose: 1.0 mg/kg/injection, schedule: Q01DX010 (sc), vehicle: water): 122 % of control
- T/C (dose: 2.0 mg/kg/injection, schedule: Q01DX010 (sc), vehicle: water): 68 % of control and 70 % of control and 91 % of control

Compound: F[B-](F)(F)F
- T/C (dose: 300.0 mg/kg/injection, schedule: Q04DX003 (sc), vehicle: gum acacia): 103 % of control
- T/C (dose: 600.0 mg/kg/injection, schedule: Q04DX003 (sc), vehicle: gum acacia): 101 % of control
- T/C (dose: 1200.0 mg/kg/injection, schedule: Q04DX003 (sc), vehicle: gum acacia): 84 % of control

Compound: Clc1ccc(C2SC=Cc3ccccc32)cc1 (stereo not drawn)
- T/C [3]: 64 % of control
- T/C [4]: 47 % of control
- T/C [5]: 106 % of control

Reference: PubChem BioAssay AID264 (DTP/NCI, 2004)
